Test: RP, Waters ACQUITY Premier BEH C18, 100 × 2.1 mm, 1.7 µm, 40 °C, 0.3 to 0.4 mL/min, estimated dead time 0.73 min; A: water + 0.1% formic acid; B: acetonitrile + 0.1% formic acid; gradient (min/%B) 0/0.5 0.1/0.5 10/80 10.1/99.5 12/0.5 12.1/0.5 14.5/0.5
Conditions: stereoisomer not certain

LC retention time | Structure (SMILES)
1.52 min | O=c1[nH]c(=O)c2[nH]c(=O)[nH]c2[nH]1 [URATE]
1.27 min | NC(=O)NCCC(=O)O [UREIDOPROPIONATE]
1.26 min | O=c1ccn(C2OC(COP(=O)(O)O)C(O)C2O)c(=O)[nH]1 (stereo unspecified) [URIDINE MONOPHOSPHATE]
2.45 min | O=c1ccn(C2OC(CO)C(O)C2O)c(=O)[nH]1 (stereo unspecified) [URIDINE]
1.39 min | O=C(O)C=Cc1cnc[nH]1 [UROCANATE]
1.21 min | CC(C)C(N)C(=O)O (stereo unspecified) [VALINE]
3.91 min | COc1cc(C(=O)O)ccc1O [VANILLIC ACID]
2.11 min | O=c1[nH]c(=O)c2[nH]cnc2[nH]1 [XANTHINE]
1.87 min | O=c1[nH]c(=O)c2ncn(C3OC(COP(=O)(O)O)C(O)C3O)c2[nH]1 (stereo unspecified) [XANTHOSINE-MONOPHOSPHATE]
3.45 min | O=c1[nH]c(=O)c2ncn(C3OC(CO)C(O)C3O)c2[nH]1 (stereo unspecified) [XANTHOSINE]
3.98 min | O=C(O)c1cc(=O)c2cccc(O)c2[nH]1 [XANTHURENATE]

Reference: the RepoRT retention time repository
